Assay results taken from patent US11452731B2, “Method of treating and preventing loss of cognition” (ENDORECHERCHE, INC., priority 2009, dated 2022).
Structures can show the parent of a compound that is named as a salt. Marks after values point to notes of the source that are not given here.

Tests used:
[1] = tested on: human Ishikawa cells; test: Alkaline phosphatase activity in human endometrial adenocarcinoma Ishikawa cells (Example 6); conditions: for Emax: read-out: Maximal stimulation of alkaline phosphatase % of 1 nM E2 stimulation
[2] = Endometrial epithelium thickness in OVX nude mice after 161 days of antiestrogen (Example 8); format: in vivo
Source text: The 17 groups included two control groups (OVX and OVX+Estrone), seven groups supplemented with an estrone implant and treated with an antiestrogen and eight other groups that received an antiestrogen alone. The estrone implants were then removed from the animals in the ovariectomized control group (OVX) and in groups that were to receive the antiestrogen alone. […] Tamoxifen was purchased from […]) while toremifene citrate was purchased from Orion (Espoo, Finland). […] The antiestrogen suspensions at the appropriate concentration were prepared each month, stored at 4° C. and used under constant agitation. Powder stock were hermetically stored at 4° C. […] After 161 days of treatment, the remaining animals were anesthetized with isoflurane and killed by exsanguination. […] The uteri were prepared to evaluate endometrial thickness by image analysis performed with Image Pro-Plus (Media Cybernetics, Maryland, USA). […] Hematoxylin- and eosin-stained sections of mice uteri were analyzed. […] Mean epithelial cell height was measured in all animals of each group.

[3] = 3-month treatment of ovariectomized rats: lumbar spine BMD, total body fat, serum cholesterol, ALP (Example 4, experiment 1); format: in vivo, rat; conditions: OVX rats, 3 months
Description: (§1) Ten to twelve week-old female Sprague-Dawley rats (Crl:CD(SD)Br) (Charles River Laboratory, St-Constant, Canada) weighing approximately 220-270 g at start of treatment were used. The animals were acclimatized to the environmental conditions (temperature: 22±3° C.; humidity: 50±20%; 12-h light-12-h dark cycles, lights on at 07:15 h) for at least 1 week before starting the experiments. The animals were housed individually and were allowed free access to tap water and a pelleted certified rodent feed (Lab Diet 5002, Ralston Purina, St-Louis, Mo.). Experiments were conducted in an animal facility approved by the Canadian Council on Animal Care (CCAC) and the Association for Assessment and Accreditation of Laboratory Animal Care (AAALAC) in accordance with the CCAC Guide for Care and Use of Experimental Animals.
On day 1 of the study, the animals of the appropriate groups were bilaterally ovariectomized (OVX) under isoflurane anesthesia. The DHEA was applied topically on the dorsal skin as a solution in 50% ethanol-50% propylene glycol while the other tested compounds were administered as suspension in 0.4% methylcellulose by oral gavage. Treatments were initiated on day 2 of the study and were performed once daily during 3 months.
After 3 months (experiment 1) or 26 weeks (experiment 2) of treatment, individual rats under Isoflurane anesthesia had their whole body skeleton and lumbar spine scanned using dual energy x-ray absorptiometry (DEXA; QDR 4500A, Hologic, Waltham, Mass.) and a Regional High Resolution Scan software. The bone mineral density (BMD) of the lumbar spine (vertebrae L2 to L4) and the total body composition (fat percentage) were determined.
After 3 months (experiment 1) or 26 weeks (experiment 2) of treatment, blood samples were collected at the jugular vein from overnight fasted animals (under Isoflurane anesthesia). Samples were processed for serum preparation and frozen at −80° C. until assay. Serum cholesterol levels and alkaline phospatase activity (ALP) were determined using the Boehringer Mannheim Diagnostic Hitachi 911 Analyzer (Boehringer Mannheim Diagnostic Laboratory Systems).

[4] = tested on: ZR-75-1 human breast cancer xenografts; test: Growth and response of human ZR-75-1 breast tumors in OVX nude mice, 7 antiestrogens for 161 days with or without estrone (Example 8); format: in vivo
Description: ZR-75-1 human breast cancer cells were obtained from the American Type Culture Collection (Rockville, Md.) and cultured in phenol red-free RPMI-1640 medium. […] (Saint-Constant, Québec, Canada). The mice (5 per cage) were housed in vinyl cages equipped with air filter lids, which were kept in laminar airflow hoods and maintained under pathogen-limiting conditions. The photoperiod was 12 hours of light and 12 hours of darkness (lights on at 07:15). Cages, bedding and food (Agway Pro-Lab R-M-H Diet #4018) were autoclaved before use. Water was autoclaved and provided ad libitum. Bilateral ovariectomy was performed under isoflurane-induced anesthesia. […] Randomization and treatments were started one week later. […] The estrone implants were then removed from the animals in the ovariectomized control group (OVX) and in groups that were to receive the antiestrogen alone. […] Tamoxifen was purchased from […]) while toremifene citrate was purchased from Orion (Espoo, Finland). […] The antiestrogen suspensions at the appropriate concentration were prepared each month, stored at 4° C. and used under constant agitation. Powder stock were hermetically stored at 4° C. […] Two perpendicular diameters were recorded and tumor area (mm2) was calculated using the formula: […] Tumor response was assessed at the end of the study or at death of each animal, if it occurred during the course of the experiment. In this case, only data of mice that survived for at least half of the study ([…]) were used in the tumor response analysis.

[5] = 5-week treatment of ovariectomized rats with SERMs alone or with DHEA: BMD of lumbar spine, femur, tibia (Example 5); format: in vivo, rat; conditions: OVX rats, 5 weeks
Description: as §1
On day 1 of the study, the animals of the appropriate groups were bilaterally ovariectomized (Ovx) under isoflurane anesthesia. The DHEA was applied topically on the dorsal skin as a solution in 50% ethanol-50% propylene glycol while the tested SERMs were administered as suspension in 0.4% methylcellulose by oral gavage. Treatments were initiated on day 2 of the study and were performed once daily during 5 weeks.
After 5 weeks of treatment, individual rats under Isoflurane anesthesia had their lumbar spine, femur and tibia scanned using dual energy x-ray absorptiometry (DEXA; QDR 4500A, Hologic, Waltham, Mass.) and a Regional High Resolution Scan software. The bone mineral density (BMD) of the lumbar spine (vertebrae L2 to L4), distal femoral metaphysis (DFM) and proximal tibial metaphysis (PTM) were determined.

[6] = 12-month treatment of ovariectomized rats with DHEA alone or with Flutamide or EM-800: bone histomorphometry, bone markers, serum lipids; format: in vivo, rat; conditions: added to DHEA, OVX rats, 12 months
[7] = 26-week treatment of ovariectomized rats: lumbar spine BMD, total body fat, serum cholesterol, ALP (Example 4, experiment 2); format: in vivo, rat; conditions: OVX rats, 26 weeks
Description: Ten to twelve week-old female Sprague-Dawley rats (Crl:CD(SD)Br) (Charles River Laboratory, St-Constant, Canada) weighing approximately 220-270 g at start of treatment were used. […] The animals were housed individually and were allowed free access to tap water and a pelleted certified rodent feed (Lab Diet 5002, Ralston Purina, St-Louis, Mo.). Experiments were conducted in an animal facility approved by the Canadian Council on Animal Care (CCAC) and the Association for Assessment and Accreditation of Laboratory Animal Care (AAALAC) in accordance with the CCAC Guide for Care and Use of Experimental Animals. […] Treatments were initiated on day 2 of the study and were performed once daily during 26 weeks. In both experiments, animals not receiving a test article were treated with the appropriate vehicle alone during the same period. […] QDR 4500A, Hologic, Waltham, Mass.) and a Regional High Resolution Scan software. […] Samples were processed for serum preparation and frozen at -80° C. until assay. Serum cholesterol levels and alkaline phospatase activity (ALP) were determined using the Boehringer Mannheim Diagnostic Hitachi 911 Analyzer (Boehringer Mannheim Diagnostic Laboratory Systems).

[8] = Uterine and vaginal weight in ovariectomized BALB/c mice treated orally for 9 days with or without estrone (Example 3); format: in vivo; conditions: OVX + E1 alone
Description: Female BALB/c mice (BALB/cAnNCrlBR) weighing 18-20 g were obtained from Charles-River, Inc. (St-Constant, Quebec, Canada) and housed 5 per cage in a temperature (23±1° C.)- and light (12 h light/day, lights on at 7:15)-controlled environment. The mice were fed rodent chow and tap water ad libitum. The animals were ovariectomized (OVX) under Isoflurane anesthesia via bilateral flank incisions and randomly assigned to groups of 10 animals. Ten mice were kept intact as controls.
In the second experiment (Table 6), TSE 424 was administered orally by gavage once daily at doses of 1, 3, 10 or 30 μg/animal for 9 days, starting 2 days after ovariectomy. In both experiments, to evaluate the antiestrogenic activity, treatment with estrone (E1, […], s.c. injection, twice daily) was started 5 days post-ovariectomy and was administered for a 6 day-period. Compounds were dissolved in ethanol (4% final concentration) and administered in 0.4% methylcellulose. Mice in the intact and OVX control groups received the vehicle alone (4% ETOH-0.4% methylcellulose) during the 9-day period. The animals were killed by exsanguination at the abdominal aorta on the 11th morning following ovariectomy. The uteri and vagina were rapidly dissected, weighed, and kept in 10% buffered formalin for further histologic examination.

[9] = Uterine, vaginal and body weight in estrone-supplemented OVX nude mice (Example 1); format: in vivo; conditions: estrone alone
Description: DHEA was dissolved in 50% ethanol 50% propylene glycol. […] Tumors were measured once a week with Vernier calipers.

[10] = tested on: ZR-75-1 human breast cancer xenografts; test: Growth and response of human ZR-75-1 breast tumor xenografts in estrone-supplemented OVX nude mice, DHEA and/or EM-800 for 9.5 months (Example 1); format: in vivo
[11] = Ishikawa cells, 5-day incubation, 1 nM E2
[12] = E2 1 mg/kg, EM-652.HCl 2.5 mg/kg, DHEA 80 mg/kg
[13] = estrone-supplemented, 50 μg daily, 161 days
[14] = Premarin 0.25 mg/kg, SERMs 2.5 mg/kg

CC/C(=C(\c1ccccc1)c1ccc(/C=C/C(=O)O)cc1)c1ccccc1 [GW 5638]
Emax ([1]; Homo sapiens, Ishikawa, 120 h): 7.75 ± 5.5% | Inhibition of 1 nM E2-induced stimulation of alkaline phosphatase IC50 [1, 11]: No inhibition | inhibition of the stimulatory effect of estrone on epithelial height ([2]; 50 μg daily oral, estrone stimulation): 24% | height of uterine epithelial cells, % of the OVX control group value ([2]; 200 μg daily, absence of estrone): 121% | ENDOMETRIAL EPITHELIUM THICKNESS (μm) ± SEM ([2]; OVX + E1, antiestrogen 50 μg daily): 35.30^b,d ± 0.07 μm | ENDOMETRIAL EPITHELIUM THICKNESS (μm) ± SEM ([2]; OVX without E1, antiestrogen 200 μg daily): 22.22^a ± 0.05 μm | ALP (serum alkaline phosphatase activity) [3]: 72 ± 6 IU/L | CHOLESTEROL (serum) [3]: 1.14 ± 0.08 mmol/L | TOTAL FAT [3]: 21.9 ± 1.4 % | LUMBAR SPINE BMD [3, 12]: 0.2299 ± 0.0060 g/cm^2 | LUMBAR SPINE Prevention of Bone Loss [3, 12]: 34% | increase of average tumor size over baseline (agonistic effect) ([4]; absence of estrone, 200 μg daily, 161 days): did not significantly change | average tumor size above pretreatment values ([4]; estrone-stimulated, 50 μg oral daily, 23 weeks): 227% | progressing tumors, % of tumors [4, 13]: 77% | progressing tumors, number of total [4, 13]: 20 of 26

Cc1c(-c2ccc(O)cc2)n(Cc2ccc(OCCN3CCCCC3)cc2)c2ccc(O)cc12 [ERA-923, 2-(4-hydroxyphenyl)-3-methyl-1-[[4-[2-(1-piperidinyl)ethoxy]phenyl]methyl]-1H-indol-5-ol]
IC50 ([1]; Homo sapiens, Ishikawa, 120 h, read-out: Inhibition of 1 nM E2-induced stimulation of alkaline phosphatase IC50): 5.84 nM | Emax ([1]; Homo sapiens, Ishikawa, 120 h): 0.6% | Maximal inhibition of 1 nM E2-induced stimulation of alkaline phosphatase [1, 11]: 100.16 (1) | DISTAL FEMORAL METAPHYSIS (DFM) BMD [5]: 0.2969 ± 0.0029 g/cm^2 | DISTAL FEMORAL METAPHYSIS (DFM) Prevention of Bone Loss [5]: 83% | PROXIMAL TIBIAL METAPHYSIS (PFM) BMD [5]: 0.2805 ± 0.0034 g/cm^2 | PROXIMAL TIBIAL METAPHYSIS (PFM) Prevention of Bone Loss [5]: 91% | LUMBAR SPINE (L2-L4) BMD ([5]; SERMs 2.5 mg/kg, DHEA 80 mg/kg): 0.2214 ± 0.0029 g/cm^2 | LUMBAR SPINE (L2-L4) Prevention of Bone Loss ([5]; SERMs 2.5 mg/kg, DHEA 80 mg/kg): 78%

CC(C)C(=O)Nc1ccc([N+](=O)[O-])c(C(F)(F)F)c1 [FLU, Flutamide]
reversal of the stimulatory effect of DHEA on serum alkaline phosphatase [6]: 65%

Oc1ccc2c(c1)CC[C@H](c1ccccc1)[C@@H]2c1ccc(OCCN2CCCC2)cc1 (racemic) [Lasofoxifene, (−)-cis-(5R,6S)-6-phenyl-5-[4-(2-pyrrolidin-1-ylethoxy)phenyl]-5,6,7,8-tetrahydronaphthalen-2-ol, D-(−)-tartrate salt]
ALP [7]: 116 ± 9 IU | CHOLESTEROL (serum) [7]: 0.60 ± 0.02 mmol/L | TOTAL FAT [7]: 24.1 ± 1.3 % | reversal of the fat increase induced by estrogen deficiency [7]: 114% | LUMBAR SPINE BMD [7, 14]: 0.2307 ± 0.0040 g/cm^2 | LUMBAR SPINE Prevention of Bone Loss [7, 14]: 61%

C[C@]12CC[C@@H]3c4ccc(O)cc4CC[C@H]3[C@@H]1CCC2=O [E1, estrone]
UTERINE WEIGHT [8]: 118.3 ± 6.0 mg | VAGINAL WEIGHT [8]: 53.4 ± 2.8 mg | UTERINE WEIGHT [9]: 132 ± 8 mg | VAGINAL WEIGHT [9]: 31 ± 2 mg | Category of response: Complete (%) ([10]; E1 0.5 μg alone): 0 (0) % | Category of response: Complete (Number) ([10]; E1 0.5 μg alone): 0 (0) | Category of response: Partial (%) ([10]; E1 0.5 μg alone): 0 (0) % | Category of response: Partial (Number) ([10]; E1 0.5 μg alone): 0 (0) | Category of response: Progression (%) ([10]; E1 0.5 μg alone): 87.5% | Category of response: Progression (Number) ([10]; E1 0.5 μg alone): 14 | Category of response: Stable (%) ([10]; E1 0.5 μg alone): 12.5% | Category of response: Stable (Number) ([10]; E1 0.5 μg alone): 2 | Category of response: Complete (%) ([10]; E1 0.5 μg alone, listed as estrone): 0% | Average tumor weight at end of experiment ([10]; estrone 0.5 μg alone (control E1-supplemented OVX mice)): 1.12 ± 0.26 g | increase in ZR-75-1 tumor size ([10]; estrone 0.5 μg s.c. daily alone, 291 days (9.5 months)): 9.4 fold | increase in ZR-75-1 tumor size ([4]; Estrone alone (OVX+E1), 23 weeks): 707%
